Source: publication PMC4512978, “Synthesis and evaluation in rats of homologous series of [^18F]-labeled dopamine D2/3 receptor agonists based on the 2-aminomethylchroman scaffold as potential PET tracers” (EJNMMI Research, 2015)

Assays:
[1] = Ex vivo tissue uptake after the PET scan (gamma-counter); format: in vivo, Sprague-Dawley rats
Protocol: After the end of the PET scans (i.e., 98 ± 8 min after tracer injection), anesthetized animals were sacrificed by heart extirpation and dissected. Samples of brain and peripheral tissues were taken. All samples were weighed, and their radioactivity was measured in a gamma-counter.

[2] = Tracer metabolism in plasma and brain extract (radio-TLC); format: in vivo, rats
Protocol: Throughout the scan, arterial blood samples (15–19 samples; 0.10–0.15 mL each) were withdrawn from each rat through the arterial cannula. […] From each sample, 25 μL aliquots of whole blood were withdrawn. The rest was centrifuged at 3500 g for 5 min; 25 μL supernatant (plasma) aliquots were withdrawn and deproteinated with 75 μL of ice-cold acetonitrile. From the resulting 100 μL, 2–8 μL portions (i.e., 2–8 % of volume) were taken for thin layer chromatography analysis (radio-TLC) to assess radiometabolite content.
The radioactivity of the plasma and whole blood samples was measured using a well-type gamma-counter (LKB-1282-Compugamma, LKB Wallac).
Radio-TLC was performed on silica plates. Samples of the formulated tracers (diluted) were run along with deproteinated plasma samples to confirm the identity of the parent compound in plasma. Eluent systems used and TLC Rf values recorded are presented in Additional file 1: Table S1.
Another half of the brain was homogenized in 3 mL of ice-cold acetonitrile using Heidolph IDAX600 homogenizer at maximum speed. Homogenate was centrifuged at 3500g for 5 min, and the supernatant (containing >95 % total radioactivity) was analyzed by radio-TLC in the same way as described above for the plasma.

[3] = raclopride 1 mg/kg, after PET scan

- Ex vivo uptake, Adipose tissue ([1]; RAC): 0.09±0.02 SUV
- Ex vivo uptake, Adrenal glands ([1]; RAC): 0.59±0.20 SUV
- Ex vivo uptake, Bladder ([1]; RAC): 0.83±0.64 SUV
- Ex vivo uptake, Blood cells ([1]; RAC): 0.06±0.01 SUV
- Ex vivo uptake, Bone ([1]; RAC): 0.17±0.05 SUV
- Ex vivo uptake, Bone marrow ([1]; RAC): 2.00±3.17 SUV
- Ex vivo uptake, Caecum ([1]; RAC): 0.63±0.84 SUV
- Ex vivo uptake, Duodenum ([1]; RAC): 4.01±4.63 SUV
- Ex vivo uptake, Heart ([1]; RAC): 0.16±0.02 SUV
- Ex vivo uptake, Kidney ([1]; RAC): 0.48±0.07 SUV
- Ex vivo uptake, Large intestine ([1]; RAC): 0.41±0.33 SUV
- Ex vivo uptake, Large intestine content ([1]; RAC): 0.09±0.12 SUV
- Ex vivo uptake, Liver ([1]; RAC): 1.43±0.30 SUV
- Ex vivo uptake, Lung ([1]; RAC): 1.38±0.20 SUV
- Ex vivo uptake, Muscle ([1]; RAC): 0.19±0.05 SUV
- Ex vivo uptake, Pancreas ([1]; RAC): 1.47±0.32 SUV
- Ex vivo uptake, Plasma ([1]; RAC): 0.23±0.01 SUV
- Ex vivo uptake, Prostate ([1]; RAC): 0.40±0.26 SUV
- Ex vivo uptake, Small intestine ([1]; RAC): 2.39±1.94 SUV
- Ex vivo uptake, Small intestine content ([1]; RAC): 24.6±32.8 SUV
- Ex vivo uptake, Spleen ([1]; RAC): 0.52±0.10 SUV
- Ex vivo uptake, Stomach ([1]; RAC): 2.09±1.19 SUV
- Ex vivo uptake, Submandibular gland ([1]; RAC): 0.28±0.06 SUV
- Ex vivo uptake, Testes ([1]; RAC): 0.42±0.10 SUV
- Ex vivo uptake, Thymus ([1]; RAC): 0.30±0.06 SUV
- Ex vivo uptake, Urine ([1]; RAC): 4.40±3.88 SUV
- Ex vivo uptake, Whole blood ([1]; RAC): 0.17±0.01 SUV
- Ex vivo uptake, Adipose tissue ([1]; SAL): 0.30±0.42 SUV
- Ex vivo uptake, Adrenal glands ([1]; SAL): 0.84±0.29 SUV
- Ex vivo uptake, Bladder ([1]; SAL): 1.00±0.52 SUV
- Ex vivo uptake, Blood cells ([1]; SAL): 0.07±0.01 SUV
- Ex vivo uptake, Bone ([1]; SAL): 0.24±0.21 SUV
- Ex vivo uptake, Bone marrow ([1]; SAL): 0.68±0.38 SUV
- Ex vivo uptake, Caecum ([1]; SAL): 0.46±0.29 SUV
- Ex vivo uptake, Duodenum ([1]; SAL): 1.15±0.25 SUV
- Ex vivo uptake, Heart ([1]; SAL): 0.15±0.04 SUV
- Ex vivo uptake, Kidney ([1]; SAL): 0.64±0.20 SUV
- Ex vivo uptake, Large intestine ([1]; SAL): 0.57±0.36 SUV
- Ex vivo uptake, Large intestine content ([1]; SAL): 0.06±0.03 SUV
- Ex vivo uptake, Liver ([1]; SAL): 1.51±0.14 SUV
- Ex vivo uptake, Lung ([1]; SAL): 1.67±0.41 SUV
- Ex vivo uptake, Muscle ([1]; SAL): 0.17±0.04 SUV
- Ex vivo uptake, Pancreas ([1]; SAL): 1.31±0.31 SUV
- Ex vivo uptake, Plasma ([1]; SAL): 0.22±0.04 SUV
- Ex vivo uptake, Prostate ([1]; SAL): 0.62±0.18 SUV
- Ex vivo uptake, Small intestine ([1]; SAL): 3.15±2.00 SUV
- Ex vivo uptake, Small intestine content ([1]; SAL): 54.2±57.7 SUV
- Ex vivo uptake, Spleen ([1]; SAL): 0.46±0.05 SUV
- Ex vivo uptake, Stomach ([1]; SAL): 1.36±0.35 SUV
- Ex vivo uptake, Submandibular gland ([1]; SAL): 0.36±0.12 SUV
- Ex vivo uptake, Testes ([1]; SAL): 0.40±0.06 SUV
- Ex vivo uptake, Thymus ([1]; SAL): 0.32±0.06 SUV
- Ex vivo uptake, Urine ([1]; SAL): 11.0±9.5 SUV
- Ex vivo uptake, Whole blood ([1]; SAL): 0.16±0.03 SUV
- Ex vivo uptake, Brainstem [1, 3]: 0.16 ± 0.04 SUV
- Ex vivo uptake, Cerebellum [1, 3]: 0.13 ± 0.02 SUV
- Ex vivo uptake, Cortex [1, 3]: 0.16 ± 0.04 SUV
- Ex vivo uptake, Hippocampus [1, 3]: 0.23 ± 0.08 SUV
- Ex vivo uptake, Mean brain uptake [1, 3]: 0.16 ± 0.04 SUV
- Ex vivo uptake, Olfactory bulbs [1, 3]: 0.15 ± 0.04 SUV
- Ex vivo uptake, Parietal bone [1, 3]: 0.10 ± 0.01 SUV
- Ex vivo uptake, Pituitary [1, 3]: 0.59 ± 0.20 SUV
- Ex vivo uptake, Rest of brain [1, 3]: 0.18 ± 0.03 SUV
- Ex vivo uptake, Striatum [1, 3]: 0.23 ± 0.08 SUV
- Ex vivo uptake, Thalamus + hypothalamus [1, 3]: 0.19 ± 0.05 SUV
- Ex vivo uptake, Brainstem ([1]; saline, after PET scan): 0.18 ± 0.02 (6) SUV
- Ex vivo uptake, Cerebellum ([1]; saline, after PET scan): 0.13 ± 0.01 (8) SUV
- Ex vivo uptake, Cortex ([1]; saline, after PET scan): 0.18 ± 0.01 (5) SUV
- Ex vivo uptake, Hippocampus ([1]; saline, after PET scan): 0.22 ± 0.02 (2) SUV
- Ex vivo uptake, Mean brain uptake ([1]; saline, after PET scan): 0.18 ± 0.01 SUV
- Ex vivo uptake, Olfactory bulbs ([1]; saline, after PET scan): 0.17 ± 0.01 (7) SUV
- Ex vivo uptake, Parietal bone ([1]; saline, after PET scan): 0.10 ± 0.01 SUV
- Ex vivo uptake, Pituitary ([1]; saline, after PET scan): 0.76 ± 0.08 SUV
- Ex vivo uptake, Rest of brain ([1]; saline, after PET scan): 0.20 ± 0.02 (3) SUV
- Ex vivo uptake, Thalamus + hypothalamus ([1]; saline, after PET scan): 0.19 ± 0.003 (4) SUV
- Ex vivo uptake, Striatum ([1]; saline, after PET scan (98 ± 8 min p.i.)): 0.28 ± 0.03 (1) SUV
- intact tracer in radioactivity of brain tissue extract ([2]; 35 min post-injection): 92%
- metabolism in plasma ([2]; living rats): quickly metabolized in the plasma
- entry of radiometabolites into the brain ([2]; rat, in vivo): did not enter the brain
Compound: Oc1ccc2c(c1)O[C@@H](CNCc1ccc(OCC[18F])cc1)CC2 [[^18F]FEt-AMC13]
- Striatal SBR based on after-scan biodistribution measurements ([1]; 1 mg/kg raclopride): 0.74 ± 0.27
- decrease of biodistribution-based striatal SBR ([1]; 1 mg/kg raclopride, p = 0.17): 31%
- Striatal SBR based on after-scan biodistribution measurements ([1]; saline pre-treated): 1.07 ± 0.10
